# Experimental data reported in patent publication US20250152577A1, “Pharmaceutical Composition of Ethidium Bromide and Use in Treating Cancer” (RUIJIN HOSPITAL, SHANGHAI JIAOTONG UNIVERSITY SCHOOL OF …, priority 2022, published 2025).
# Legend:
# [1] = test system: pancreatic tumor cells Panc1; test: Scratch assay of cultured cells (migration); assay type: cell-based, human
# Description: (§1) Ectopic metastasis of tumors is the biggest challenge in tumor treatment.
# [2] = test system: colorectal cancer cells RKO; test: Scratch assay of cultured cells (migration); assay type: cell-based, human
# Description: as §1
# [3] = test system: tumor cells; test: Median lethal dosage, summary over tumor cells; assay type: cell-based; settings: vast majority of the tumor cells of Table 1; read-out: median lethal dosages against tumor cells
# [4] = test system: normal cell line GES1; test: Mitochondrial function by Seahorse; assay type: cell-based; settings: Seahorse after 6 hours
# Method: (§2) To further verify the effect of ethidium bromide on mitochondrial function, various cell lines were treated with ethidium bromide and mitochondrial function was tested by using Seahorse after 6 hours.
# [5] = test system: pancreatic cancer cells Panc1; test: Intraperitoneal injection of pancreatic cancer cells Panc1 in nude mice; assay type: in vivo; settings: for tumor in the pancreas: start 3 days after cell injection
# Method: To further verify whether ethidium bromide can inhibit tumor migration in vivo, we injected 2×10^6 pancreatic cancer cells Panc1 intraperitoneally into nude mice, which were then divided into 3 groups: control group, gavage, and intravenous injection administration. Mice in the gavage-administration group were started with gavage oral administration of 20 mg/Kg ethidium bromide per day by gavage 3 days after intraperitoneal injection of pancreatic cancer cells. Mice in the intravenous administration group were administered with 5 mg/Kg ethidium bromide per day intravenously (Tail-IV) 3 days after intraperitoneal injection of pancreatic cancer cells.
# In order to further investigate the anti-tumor effect of ethidium bromide on nude mice with advanced tumorigenicity and to obtain its effect on the viability of nude mice, we intraperitoneally injected the nude mice with 2×10^6 pancreatic cancer cells Panc1, which were then divided into 3 groups, the control group (no-treatment group), the early-injection group (administered intravenously after 3 days) and the late-injection group (administered intravenously after 14 days). Mice in the early injection group were administered with 5 mg/Kg ethidium bromide intravenously per day for 3 weeks 3 days after intraperitoneal injection of pancreatic cancer cells (starting intravenous administration after 3 days for about 3 weeks). Mice in the late injection group were administered with 5 mg/Kg ethidium bromide intravenously per day for 3 weeks starting 2 weeks days after intraperitoneal injection of pancreatic cancer cells (starting intravenous administration after 14 days for about 3 weeks).
# In addition, we utilize the most advanced nuclear magnetic spectrometer uMR 9.4T with a 30 cm aperture magnet jointly developed by our work unit and Shanghai United Imaging Healthcare Co., LTD, as well as our self-developed GC, GPA, and VTC42 coils specially designed for abdominal scanning, and an optional PET insert system to achieve the PET-MR imaging results of the temporal and spatial integrality. The development of pancreatic cancer was followed dynamically in the control and dosing groups following intraperitoneal injection of pancreatic cancer cells. Mice were injected intraperitoneally with 2×10^6 pancreatic cancer cells, Panc1, and left for 2 weeks after which a visible tumor mass can be detected in the abdominal cavity to begin intravenous administration of 5 mg/Kg ethidium bromide for 4 weeks. […] Moreover, the abdominal cavity of the control mice was filled with ascites by the late stage (where the arrows are shown), whereas there was none in the dosing group (FIGS. 13A and 13B). […] However, clearance was not achieved mostly as in the previous results and we analyzed that it might be due to the fact that the mice were kept in a non-SPF environment during the whole administration period of MRI, thus affecting the effect of the drug.
# [6] = test system: Reh Leukemia; test: Median lethal dosage (IC50) against tumor cell lines; assay type: cell-based; settings: Reh leukemia tumor cells
# [7] = test system: RKO Colorectal cancer; test: as above; assay type: cell-based; settings: Homo sapiens; RKO colorectal cancer tumor cells
# [8] = test system: colorectal cancer cells RKO; test: Intraperitoneal injection of colorectal cancer cells RKO in nude mice, intravenous administration; assay type: in vivo
# Description: In order to further investigate whether ethidium bromide also has a better inhibitory effect on other types of tumors, we administered nude mice 2 weeks after the intraperitoneal injection of 2×10^6 colorectal cancer cells RKO, and then tested the anti-tumor effect of ethidium bromide after 4 weeks of intravenous administration, as described above.
# [9] = test system: LO2; test: Median lethal dosage (IC50) against normal cell lines; assay type: cell-based; settings: Homo sapiens, L02; LO2 normal cells
# [10] = test system: mouse melanoma cells B16; test: Subcutaneous B16 melanoma in C57 mice, intraperitoneal administration; assay type: in vivo; settings: intraperitoneal 10 mg/Kg
# Method: In order to further test whether ethidium bromide still has strong anti-tumor activity against solid tumors in vivo, C57 mice were first injected subcutaneously with 2×10^6 mouse melanoma cells B16, and the administration was initiated after about 10 days when the subcutaneous tumor volume of the mice reached about 30 mm^3. We first treated the mice by traditional intraperitoneal administration (10 mg/Kg). […] So after 3 days, we switched to injecting every other day. […] Although the tumors of the mice in the dosing group were slightly smaller than those in the control group, the tumor suppression effect was not obvious (FIG. 18C).
# [11] = test system: GES1; test: Median lethal dosage (IC50) against normal cell lines; assay type: cell-based; settings: Homo sapiens; GES1 normal cells
# [12] = test system: colorectal cancer cells RKO; test: Mitochondrial function by Seahorse; assay type: cell-based, human; settings: Seahorse after 6 hours; concentration-dependent
# Method: as §2
# [13] = test system: pancreatic cancer cells Panel; test: Mitochondrial function by Seahorse; assay type: cell-based, human; settings: Seahorse after 6 hours; concentration-dependent
# Method: as §2
# [14] = test system: normal cells; test: Cell death/apoptosis (PI Sub-G1 flow cytometry, MTT, Annexin V); assay type: cell-based; settings: 48 h
# Method: (§3) Ethidium bromide was purchased from Sigma (E7637) and treated as follows. Cancer and normal cells of various tissue origins with approximately 40% growth abundance were treated with 0.1, 0.4, and 1 μg/ml for 48 h, followed by PI staining and cycle detection by flow cytometry, statistical analysis of genomic DNA break (Sub-G1) cells, or cell viability by MTT method.
# (§4) In support of this, cancer cells and normal cells from various tissues with growth abundance of about 40% were treated with 1, 2, and 5 μM for 48 h, respectively, and then observed the growth of the cells by light microscopy, followed by PI staining, detection and statistical analysis of genomic DNA break (Sub-G1) cells by flow cytometry (FIG. 3), or cell apoptosis detection by Annexin V staining method (FIG. 4).
# [15] = test system: cancer cells; test: as above; assay type: cell-based; settings: 48 h
# Method: as §3, §4
# [16] = intravenous, start 2 weeks after cell injection, 4 weeks
smiles,measurement,setting,value
"CC[n+]1c(-c2ccccc2)c2cc(N)ccc2c2ccc(N)cc21 [ethidium bromide, Ethidium bromide]",migration of tumor cells,[1],significantly inhibit the migration
same,migration of tumor cells,[2],significantly inhibit the migration
same,IC50,[3],< 10 µM
same,"oxygen consumption, glycolysis level, glycolysis rate",[4],decreased only at higher concentrations such as 5 μM
same,weight of the pancreas,"[5]; administration group, especially intravenous injection, vs control",significantly smaller than that of the control group
same,body weights,"[5]; dosing group, intravenous 5 mg/Kg per day, 3 weeks",relatively stable
same,pancreatic cancer tumor (weight) vs control,"[5]; dosing groups, intravenous 5 mg/Kg per day, 3 weeks",significantly smaller than that in the control group
same,nude mice with no tumor,"[5]; early injection group: intravenous 5 mg/Kg per day from day 3, 3 weeks",More than 80%
same,tumor in the pancreas,[5]; gavage 20 mg/Kg per day,"still had a small amount of tumor, but was significantly smaller than that in the control group"
same,tumor in the pancreas,[5]; intravenous 5 mg/Kg per day,no tumor was found in the pancreas
same,growth of pancreatic cancer in the abdominal cavity (MRI),"[5]; intravenous 5 mg/Kg, start 2 weeks after cell injection, 4 weeks","significantly inhibited, or almost completely inhibited"
same,body weight,[5]; intravenous injection compared with gavage,did not cause a significant decrease in body weight
same,blood hemoglobin,"[5]; late dosing group, intravenous 5 mg/Kg per day, 3 weeks",remained relatively normal
same,tumors in the liver tissues vs control,[5]; late injection group,significantly reduced
same,nude mice with no tumor at all,"[5]; late injection group: intravenous 5 mg/Kg per day from day 14, 3 weeks",about 45%
same,weights of liver and pancreatic tissues vs control,[5]; late-injected group,significantly smaller
same,IC50,[6],2230 nM
same,IC50,[7],1430 nM
same,liver and spleen weights vs control,"[8]; intravenous, 4 weeks",no significant difference in liver and spleen weights
same,abdominal tumors vs control,[8]; [16],significantly smaller than those in the control group
same,mice with tumors completely cleared,[8]; [16],approximately 25%
same,body weight,"[8]; later stage, dosing group",slight decrease in body weight
same,IC50,[9],50.7 µM
same,tumor suppression effect,[10],not obvious
same,body weight,[10]; after 3 days of continuous injection,lose weight significantly
same,survival of mice by the end of the experiment,[10]; daily 3 days then every other day,only 1 of the 19 mice survived
same,IC50,[11],64.7 µM
same,"oxygen consumption, glycolysis level, glycolysis rate",[12],significantly reduced
same,"oxygen consumption, glycolysis level, glycolysis rate",[13],significantly reduced
same,growth inhibition / apoptosis,"[14]; 0.1, 0.4, 1 μg/ml, Chang, LO2, 3T3-L1",inhibited growth at most and cannot induce apoptosis
same,growth inhibition / apoptosis,"[14]; 1, 2, 5 μM, LO2, chang, GES1",only inhibited growth and cannot induce apoptosis
same,induction of cell death,"[15]; 0.1, 0.4, 1 μg/ml, SK-Hep1, BEL-7404, B16",can selectively induce the death of a wide range of cancer cells
same,induction of cell death,"[15]; 1, 2, 5 μM, SK-Hep1, 7404, AGS, RKO",can selectively induce the death of cancer cells in many different tissues
